“Also recorded” adds a separate entry of the source.
Tests used:
[1] = tested on: diabetes-induced Sprague-Dawley rats; test: Blood glucose lowering effect in streptozotocin diabetes-induced rats, oral; format: in vivo; conditions: STZ (45 mg/kg) diabetic male Sprague-Dawley rats, 50 mg/kg oral in 30% ethanol, smallest blood glucose of 90, 120 and 180 min; for inhibition in vivo at 50 mg/kg: Rattus norvegicus, read-out: Blood glucose lowering rate
Protocol: Two groups of male diabetes-induced Sprague-Dawley rats (each of 4-5 rats weighing about 250 g per group) were used for this experiment. 45 mg/kg of streptozotocin (STZ) dissolved in 0.1M citrate buffer (pH 4.5, 0-4° C.) was injected to the tail vein of fasted rats for 1 day. After elapse of 7 days, their blood glucose concentration were measured and animals having the blood serum concentration of more than 350 mg/dl were used as diabetes-induced rats for this experiment. The rats were intravenously administered at a daily dose of 1 ml/kg, while the normal control group received equal volume of 0.1M citrate buffer.
7 days after being treated with streptozotocin, diabetes-induced rats were orally administered at a dose of 50 mg/kg of the compounds prepared by the procedures of Examples 1-13. Then, at time intervals of 90 mins, 120 mins and 180 mins, their blood glucose concentrations were measured and the smallest values were taken. The compounds of Example 1-13 were dissolved in 30% ethanol until its final concentration became 2 ml/kg, while the control group was orally received equal volume of 30% ethanol.
Significant difference between two groups was determined by ANOVA test, together with a post hoc test using Newman-Keuls test.

[2] = Acute oral toxicity test in rats; conditions: rat, in vivo, mature rats 200-250 g, dissolved in ethylacetate
Protocol: The acute toxicity tests on rats were performed using the compound prepared by the procedure of the Example 1. Mature rats weighing 200-250 g were orally given the compound of the Example 1 dissolved in ethylacetate in parallel with its gradually increasing concentration. Then, LD50 was calculated by number of killed animals.

[3] = phase II clinical trials, discontinued; cited from earlier work

Compound: CCOC(=O)C(O)(CO)CCCCCCOCc1ccccc1 (stereo not drawn) [Example 1, Ethyl-2,3-dihydroxy-2-(6-benzoxy)hexylpropionate]
- inhibition in vivo at 50 mg/kg [1]: 38.5%
- LD50 [2]: 482 mg/kg

Compound: CCOC(=O)C(O)(CO)CCCCCCOCc1ccc(OC)cc1 (stereo not drawn) [Example 2, Ethyl-2,3-dihydroxy-2-[6-(4-methoxybenzoxy)hexyl]propionate]
- inhibition in vivo at 50 mg/kg [1]: 10%

Compound: CCOC(=O)C(O)(CO)CCCCCCOc1ccc(Cl)cc1 (stereo not drawn) [Example 3, Ethyl-2,3-dihydroxy-2-[6-(4-chlorophenoxy)hexyl]propionate]
- inhibition in vivo at 50 mg/kg [1]: 23%

Compound: CCOC(=O)C(O)(CO)CCCCCCn1nc(C)cc1C (stereo not drawn) [Example 4, Ethyl-2,3-dihydroxy-2-[6-(3,5-dimethylpyrazol)hexyl]propionate]
- Blood glucose lowering rate [1]: 19.8%

Compound: CCOC(=O)C(O)(CO)CCCCCCOCc1ccc(C)o1 (stereo not drawn) [Example 5, Ethyl-2,3-dihydroxy-2-[6-(5-methyl-2-furanmethoxy)hexyl]propionate]
- inhibition in vivo at 50 mg/kg [1]: 22%

Compound: CCOC(=O)C(O)(CO)CCCCCCOCCc1cccs1 (stereo not drawn) [Example 6, Ethyl-2,3-dihydroxy-2-[6-(2-thiophenethoxy)hexyl]propionate]
- inhibition in vivo at 50 mg/kg [1]: 1.2%

Compound: CCOC(=O)C(O)(CO)CCCCCCOCc1ccc(Cl)s1 (stereo not drawn) [Example 7, Ethyl-2,3-dihydroxy-2-[6-(5-chloro-2-thiophenmethoxy)hexyl]propionate]
- inhibition in vivo at 50 mg/kg [1]: 19.2%

Compound: CCOC(=O)C(O)(CO)CCCCCCOCc1sccc1Cl (stereo not drawn) [Example 8, Ethyl-2,3-dihydroxy-2-[6-(3-chloro-2-thiophenmethoxy)hexyl]propionate]
- inhibition in vivo at 50 mg/kg [1]: 26%

Compound: CCOC(=O)C(O)(CBr)CCCCCCOc1ccc(Cl)cc1 (stereo not drawn) [Example 9]
- inhibition in vivo at 50 mg/kg [1]: 22%

Compound: CCOC(=O)C(O)(CCCCCCOCc1ccccc1)COS(=O)(=O)c1ccc(C)cc1 (stereo not drawn) [Example 10, Ethyl 2-hydroxy-3-(4-methylbenzenesulfoxy)-2-[6-benzoxyhexyl]propionate]
- inhibition in vivo at 50 mg/kg [1]: 34.1%

Compound: CCOC(=O)C(O)(CBr)CCCCCCOCCc1cccs1 (stereo not drawn) [Example 11, Ethyl 2-hydroxy-3-bromo-2-[6-(2-thiophenethoxy)hexyl]propionate]
- inhibition in vivo at 50 mg/kg [1]: 13%

Compound: CCOC(=O)C(O)(CBr)CCCCCCOCc1ccc(Cl)s1 (stereo not drawn) [Example 12, Ethyl 2-hydroxy-3-bromo-2-[6-(5-chlorothiophenemethoxy)hexyl]propionate]
- inhibition in vivo at 50 mg/kg [1]: 26.4%

Compound: CCOC(=O)C(O)(CBr)CCCCCCOCc1sccc1Cl (stereo not drawn) [Example 13, Ethyl 2-hydroxy-3-bromo-2-[6-(3-chlorothiophenemethoxy)hexyl]propionate]
- inhibition in vivo at 50 mg/kg [1]: 19.3%

Compound: CCOC(=O)[C@@]1(CCCCCCOc2ccc(Cl)cc2)CO1 [etomoxir]
- side effects associated with prolonged administration [3]: enlarged heart; also recorded: toxicity in the liver

— patent publication US6030993A, “2-hydroxypropionic acid derivative and its manufacturing method” (Sang Sup JEW, priority 1996, dated 2000)
